Measured values as given in patent US11680086B2, “Lipopeptide for potently inhibiting HIV, derivative thereof, pharmaceutical composition thereof and use thereof” (Institute of Pathogen Biology, Chinese Academy of Medical …, priority 2017, dated 2023).
Read-outs that look alike come from different tables or passages of the source. Peptide text beside a SMILES is read from it. * marks the point of attachment. Stearoyl = CCCCCCCCCCCCCCCCCC(=O)*

Columns and labels:
[1] = test system: SIV pseudoviruses SIVpbj and SIV239; test: inhibition of SIV pseudoviruses; format: cell-based
[2] = test system: HIV-1 strain NL4-3 (NL4-3D36G); test: antiviral activity in serum of macaque after subcutaneous injection; format: in vivo, macaques (rhesus monkeys); conditions: 3 mg/kg subcutaneous
Protocol: The specific method was as follows: 6 experimental macaques (rhesus monkeys) were selected, half male and half female, aged 3-4 years old, weighing 3.4-4.7 kg. […] The serum was separated according to a conventional method. The injection interval of each inhibitor was more than 2 weeks to ensure that there was no residue of the previous analyte. The serum activity against the HIV-1 strain NL4-3 (NL4-3D36G) was measured according to the experimental method of the pseudovirus-based assay in the above examples. The serum was diluted by 3 folds. […] Therefore, the lipopeptides of the present invention were not only potent but also were long-lasting effective.

[3] = test system: 35 HIV-1 pseudoviruses (subtypes A, B, B', C, G, A/C, A/E, B/C)

For `CCCCCCCCCCCCCCCCCC(=O)NCCCC[C@H](NC(=O)[C@H](CCC(=O)O)NC(=O)[C@H](CC(C)C)NC(=O)[C@H](CCCCN)NC(=O)[C@H](CCCCN)NC(=O)[C@H](CC(C)C)NC(=O)[C@H](CCC(=O)O)NC(=O)[C@H](CCC(=O)O)NC(=O)[C@H](CCC(=O)O)NC(=O)[C@H](CC(N)=O)NC(=O)[C@H](CCCCN)NC(=O)[C@H](CCCCN)NC(=O)[C@H](CCC(N)=O)NC(=O)[C@H](CCC(N)=O)NC(=O)[C@H](CCC(=O)O)NC(=O)[C@H](CCC(=O)O)NC(=O)[C@H](C)NC(=O)[C@H](CCCCN)NC(=O)[C@H](CCCCN)NC(=O)[C@H](CC(C)C)NC(=O)[C@H](CC(C)C)NC(=O)[C@H](CCC(=O)O)NC(=O)[C@H](CCC(=O)O)NC(=O)[C@@H](NC(=O)[C@H](CCCCN)NC(=O)[C@H](CCC(N)=O)NC(=O)[C@H](CCC(=O)O)NC(=O)[C@H](Cc1c[nH]c2ccccc12)NC(C)=O)[C@@H](C)CC)C(N)=O` [LP-80] (Ac-WEQKIEELLKKAEEQQKKNEEELKKLEK(Stearoyl)-NH2), the “inhibitory activity against SIV (in words)” value [1] was “extremely potent inhibitory activity”, the “maximum serum dilution multiple for inhibiting 50% of NL4-3 infectivity” value ([2]; 6 hour after injection) was 491409 folds and the “maximum serum dilution multiple for inhibiting 50% of NL4-3 infectivity” value ([2]; 8 hour after injection) was 537206 folds. The “maximum serum dilution multiple for inhibiting 50% of NL4-3 infectivity” value ([2]; 72 hours (3 days) after injection) was 16157 folds, the “maximum serum dilution multiple for inhibiting 50% of NL4-3 infectivity” value ([2]; 96 hours (4 days) after injection) was 1980 folds and the “maximum serum dilution multiple for inhibiting 50% of NL4-3 infectivity” value ([2]; 120 hours (5 days) after injection) was 211 folds. For the same compound, the “maximum serum dilution multiple for inhibiting 50% of NL4-3 infectivity” value ([2]; 144 hours (6 days) after injection) was 46 folds, the IC50 ([3]; read-out: IC50 for many strains, many individual strains of the 35 pseudoviruses) was under 1 pM and the IC50 ([3]; read-out: average IC50 for inhibition of various types of HIV-1 pseudoviruses, average over 35 pseudoviruses) was 6 pM. The “inhibitory activity against different subtypes of HIV-1 as folds of T-20” value ([3]; relative to T-20, from average IC50) was 6902 folds.
